Measured values: publication PMC3380439 (Bioorganic & medicinal chemistry, 2011)
“And” between values parts separate entries of the source, which are not always exact repeats. Equal values may be shown once.

What was measured:
[1] = Critical micelle concentration by tensiometer measurements in water; type: physicochemical; details: for CMC: in water, triplicate single values
herpes-simplex virus 2 = details: ref xxi; cited from earlier work
[2] = system: simian immunodeficiency virus (SIV); details: ref xxii; cited from earlier work
bacteriophage φ6 = details: ref xxi; cited from earlier work

Row | Compound | CMC [1] | other results
1 | CCCCCCCCCCCCCCCC(=O)OC[C@H]1O[C@H](O[C@@H]2O[C@H](CO)[C@@H](O)[C@H](O)[C@H]2O)[C@@H](O)[C@@H](O)[C@@H]1O [Compound 6, β-D-Glucopyranosyl-(1→1)-6-O-palmitate-α-D-mannopyranoside] | 10.5 µM and 12 µM | –
2 | CCCCCCCCCCCCCCCC(=O)O[C@@H]1[C@H](O)[C@@H](O[C@@H]2O[C@H](CO)[C@H](O)[C@H](O)[C@H]2O)O[C@H](CO)[C@H]1O [Compound 4, β-D-Galactopyranosyl-(1→1)-3-O-palmitate-α-D-mannopyranoside] | 12.5 µM | –
3 | 1-O-lauryl-glycerol [GML] | – | activity against herpes-simplex virus 2 (herpes-simplex virus 2): low micromolar activity; prevention of SIV in rhesus macaque model [2]: prevent simian immunodeficiency virus (SIV); activity against bacteriophage φ6 (bacteriophage φ6): low micromolar activity
4 | CCCCCCCCCCCCCCCC(=O)OC[C@H]1O[C@H](OC)[C@@H](O)[C@@H](O)[C@@H]1O [Compound 7, Methyl-6-O-palmitate-α-D-mannopyranoside] | 13.5 µM and 13.7 µM | –
5 | CCCCCCCCCCCCCCCC(=O)OC[C@H]1O[C@H](O[C@@H]2O[C@H](CO)[C@H](O)[C@H](O)[C@H]2O)[C@@H](O)[C@@H](O)[C@@H]1O [Compound 3, β-D-Galactopyranosyl-(1→1)-6-O-palmitate-α-D-mannopyranoside] | 10.5 µM | –
6 | CCCCCCCCCCCCCCCC(=O)OC[C@H]1O[C@H](OC)[C@@H](O)[C@@H](O)[C@@H]1OC(=O)CCCCCCCCCCCCCCC [Compound 8, Methyl-4,6-di-O-palmitate-α-D-mannopyranoside] | – | concentration above which precipitates rather than micelles form in water ([1]; interpretation of surface tension data): > 500 nM
